Like-named read-outs stand apart in the source and are kept apart here.
Key:
[1] = biological target: mouse Smoothened receptor (Mus musculus, UniProt P56726); assay: Smo binding assay, displacement of radio-labeled smoothened agonist, filter binding format (mouse); conditions: displacement of small molecule agonist of Smoothened, read-out: Mouse Smo bdg., IC50
Source text: A Smo binding assay was developed using radio-labeled smoothened agonist for compound competition.

Gli-luciferase activity = assay: Reporter gene assay (RGA) in TMHh12 cells, antagonism of Gli-luciferase activity in the presence of a Smo agonist; assay type: cell-based
Method: Activity of the compounds was evaluated using a reporter gene assay (RGA) in TMHh12 cells.

[2] = 25 nM small molecule Smo agonist, read-out: RGA (25 nM Smo agonist) IC50
[3] = read-out: RGA (1 nM Smo agonist) IC50, 1 nM small molecule Smo agonist

mouse Smoothened receptor, sequence (P56726 33-793): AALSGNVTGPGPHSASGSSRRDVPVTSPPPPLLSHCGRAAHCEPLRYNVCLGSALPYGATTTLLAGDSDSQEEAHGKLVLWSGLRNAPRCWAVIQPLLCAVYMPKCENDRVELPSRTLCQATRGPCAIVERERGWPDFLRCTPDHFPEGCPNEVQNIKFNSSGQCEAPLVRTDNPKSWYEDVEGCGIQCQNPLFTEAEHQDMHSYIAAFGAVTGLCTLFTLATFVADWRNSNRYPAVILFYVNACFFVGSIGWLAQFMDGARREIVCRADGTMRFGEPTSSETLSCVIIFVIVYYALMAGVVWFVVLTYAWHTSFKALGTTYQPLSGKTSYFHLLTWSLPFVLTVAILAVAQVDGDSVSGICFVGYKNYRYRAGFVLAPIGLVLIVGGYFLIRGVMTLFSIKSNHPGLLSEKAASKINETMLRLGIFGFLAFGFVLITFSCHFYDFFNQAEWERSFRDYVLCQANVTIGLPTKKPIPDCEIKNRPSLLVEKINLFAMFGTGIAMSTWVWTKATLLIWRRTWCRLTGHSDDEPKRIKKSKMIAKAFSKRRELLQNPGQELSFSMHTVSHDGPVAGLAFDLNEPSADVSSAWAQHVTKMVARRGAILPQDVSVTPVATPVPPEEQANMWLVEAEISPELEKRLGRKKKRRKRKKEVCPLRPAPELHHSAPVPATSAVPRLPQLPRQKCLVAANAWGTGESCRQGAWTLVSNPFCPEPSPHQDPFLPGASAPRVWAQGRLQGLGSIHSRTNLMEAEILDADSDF

| SMILES | IC50 [1] | IC50 (Gli-luciferase activity; [2]) | IC50 (Gli-luciferase activity; [3]) |
| --- | --- | --- | --- |
| FC(F)(F)c1ccc(N2CCCN(c3nnc(Cc4ccccc4)c4ccccc34)CC2)nc1 [Example 3] | < 100 nM | 100 to 1000 nM | 100 to 1000 nM |
| N#Cc1ccc(N2CCN(c3nnc(Cc4ccccc4)c4ccccc34)CC2)nc1 [Example 4] | 1000 to 10000 nM |  |  |
| c1ccc(N2CCN(c3nnc(Cc4ccncc4)c4ccccc34)CC2)cc1 [Example 6] |  | 10000 to 40000 nM | 1000 to 10000 nM |
| CC(C)(C)c1ccc(N2CCN(c3nnc(Cc4cc(Cl)cc(Cl)c4)c4ccccc34)CC2)nc1 [Example 9] | < 100 nM | 100 to 1000 nM | < 100 nM |
| Cc1cc(Cc2nnc(N3CCN(c4ccccc4)CC3)c3ccccc23)ccn1 [Example 11] |  | 10000 to 40000 nM | 1000 to 10000 nM |
| c1ccc(Cc2nnc(N3CCC(c4ccccc4)CC3)c3ccccc23)cc1 [Example 12] | 10000 to 40000 nM | 1000 to 10000 nM | 1000 to 10000 nM |
| c1ccc(C2CCN(c3nnc(Cc4ccncc4)c4ccccc34)CC2)cc1 [Example 13] | 1000 to 10000 nM | 1000 to 10000 nM | 1000 to 10000 nM |
| Cc1cc(Cc2nnc(N3CCC(c4ccccc4)CC3)c3ccccc23)ccn1 [Example 14] |  | 1000 to 10000 nM | 1000 to 10000 nM |
| FC(F)(F)c1cnc(N2CCCN(c3nnc(Cc4ccccc4)c4ccccc34)CC2)c(Cl)c1 [Example 17] | 100 to 1000 nM | 1000 to 10000 nM | < 100 nM |
| c1ccc(Cc2nnc(N3CCN(c4ccc5ccccc5n4)CC3)c3ccccc23)cc1 [Example 18] | < 100 nM | 100 to 1000 nM | < 100 nM |
| N#Cc1ccc(N2CCCN(c3nnc(Cc4ccccc4)c4ccccc34)CC2)nc1 [Example 19] | < 100 nM | 100 to 1000 nM | < 100 nM |
| c1ccc2c(N3CCN(c4cnccn4)CC3)nnc(Cc3ccncc3)c2c1 [Example 20] | 1000 to 10000 nM |  | 1000 to 10000 nM |
| c1ccc(Cc2nnc(N3CCN(c4cnccn4)CC3)c3ccccc23)cc1 [Example 21] | 100 to 1000 nM | 1000 to 10000 nM | 100 to 1000 nM |
| Cc1cc(Cc2nnc(N3CCN(c4ccccn4)CC3)c3ccccc23)ccn1 [Example 22] |  | 10000 to 40000 nM | 1000 to 10000 nM |
| c1ccc(N2CCN(c3nnc(Cc4ccncc4)c4ccccc34)CC2)nc1 [Example 23] | 10000 to 40000 nM | 10000 to 40000 nM | 1000 to 10000 nM |
| c1ccc(Cc2nnc(N3CCN(c4ccccn4)CC3)c3ccccc23)cc1 [Example 24] | 100 to 1000 nM | 1000 to 10000 nM | 100 to 1000 nM |
| c1ccc(Cc2nnc(N3CCN(c4ncccn4)CC3)c3ccccc23)cc1 [Example 25] | 100 to 1000 nM | 1000 to 10000 nM | < 100 nM |
| c1ccc2c(N3CCN(c4ccncc4)CC3)nnc(Cc3ccncc3)c2c1 [Example 26] | 1000 to 10000 nM |  | 1000 to 10000 nM |
| Cc1ccc(N2CCN(c3nnc(Cc4ccccc4)c4ccccc34)CC2C)cc1 (stereo not drawn) [Example 27] | 1000 to 10000 nM | 1000 to 10000 nM | 100 to 1000 nM |
| Cc1ccc(N2CCN(c3nnc(Cc4ccncc4)c4ccccc34)CC2C)cc1 (stereo not drawn) [Example 28] | 1000 to 10000 nM | 1000 to 10000 nM | 1000 to 10000 nM |
| Cc1ccc(N2CCN(c3nnc(Cc4ccnc(C)c4)c4ccccc34)CC2C)cc1 (stereo not drawn) [Example 29] | 10000 to 40000 nM | 10000 to 40000 nM | 1000 to 10000 nM |
| Clc1ccc(N2CCN(c3nnc(Cc4ccccc4)c4ccccc34)CC2)cc1Cl [Example 30] | 1000 to 10000 nM | 1000 to 10000 nM | 100 to 1000 nM |
| c1ccc(Cc2nnc(N3CCN(c4ccc5ccccc5c4)CC3)c3ccccc23)cc1 [Example 31] | 100 to 1000 nM | 1000 to 10000 nM | 100 to 1000 nM |

| SMILES | IC50 [1] | IC50 (Gli-luciferase activity; [2]) | IC50 (Gli-luciferase activity; [3]) |
| --- | --- | --- | --- |
| c1ccc2cc(N3CCN(c4nnc(Cc5ccncc5)c5ccccc45)CC3)ccc2c1 [Example 32] | 100 to 1000 nM | 1000 to 10000 nM | 100 to 1000 nM |
| Cc1cc(Cc2nnc(N3CCN(c4ccc5ccccc5c4)CC3)c3ccccc23)ccn1 [Example 33] | 100 to 1000 nM | 1000 to 10000 nM | 1000 to 10000 nM |
| c1ccc(Cc2nnc(N3CCN(c4cccc5ccccc45)CC3)c3ccccc23)cc1 [Example 34] | 1000 to 10000 nM | 1000 to 10000 nM | 100 to 1000 nM |
| Cc1cc(Cc2nnc(N3CCN(c4cccc5ccccc45)CC3)c3ccccc23)ccn1 [Example 35] |  | 1000 to 10000 nM | 1000 to 10000 nM |
| c1ccc2c(N3CCN(c4nnc(Cc5ccncc5)c5ccccc45)CC3)cccc2c1 [Example 36] | 1000 to 10000 nM | 1000 to 10000 nM | 100 to 1000 nM |
| c1ccc(Cc2nnc(N3CCN(c4ccncc4)CC3)c3ccccc23)cc1 [Example 37] | 1000 to 10000 nM | 1000 to 10000 nM | 100 to 1000 nM |
| Cc1ccccc1N1CCN(c2nnc(Cc3ccccc3)c3ccccc23)CC1 [Example 38] | 10000 to 40000 nM | 1000 to 10000 nM | 1000 to 10000 nM |
| c1ccc(Cc2nnc(N3CCCN(c4ncccn4)CC3)c3ccccc23)cc1 [Example 40] | 100 to 1000 nM | 100 to 1000 nM | < 100 nM |
| Cc1ccnc(N2CCCN(c3nnc(Cc4ccccc4)c4ccccc34)CC2)n1 [Example 41] | 100 to 1000 nM | 100 to 1000 nM | < 100 nM |
| CCCc1cnc(N2CCN(c3nnc(Cc4ccccc4)c4ccccc34)CC2)nc1 [Example 42] | < 100 nM | 100 to 1000 nM | < 100 nM |
| CCc1cnc(N2CCN(c3nnc(Cc4ccccc4)c4ccccc34)CC2)nc1 [Example 43] | < 100 nM | < 100 nM | < 100 nM |
| CCCc1cnc(N2CCCN(c3nnc(Cc4ccccc4)c4ccccc34)CC2)nc1 [Example 44] | < 100 nM | 100 to 1000 nM | < 100 nM |
| CCc1cnc(N2CCCN(c3nnc(Cc4ccccc4)c4ccccc34)CC2)nc1 [Example 45] | < 100 nM | 100 to 1000 nM | < 100 nM |
| Cc1ccnc(N2CCN(c3nnc(Cc4ccccc4)c4ccccc34)CC2)n1 [Example 47] | < 100 nM | < 100 nM | < 100 nM |
| CN(CCO)C(=O)c1ccc(N2CCN(c3nnc(Cc4ccccc4)c4ccccc34)CC2)nc1 [Example 54c, 6-[4-(4-Benzyl-phthalazin-1-yl)-piperazin-1-yl]-N-(2-hydroxy-ethyl)-N-methyl-nicotinamide] | 100 to 1000 nM | 100 to 1000 nM | < 100 nM |
| O=C(NCCO)c1ccc(N2CCN(c3nnc(Cc4ccccc4)c4ccccc34)CC2)nc1 [Example 54e] | 100 to 1000 nM | 100 to 1000 nM | < 100 nM |
| CN(C)CCNC(=O)c1ccc(N2CCN(c3nnc(Cc4ccccc4)c4ccccc34)CC2)nc1 [Example 54h] |  | 100 to 1000 nM | 100 to 1000 nM |
| NCc1ccc(N2CCN(c3nnc(Cc4ccccc4)c4ccccc34)CC2)nc1 [Example 71] |  | 100 to 1000 nM | < 100 nM |
| NCc1ccc(N2CCN(c3nnc(Cc4ccncc4)c4ccccc34)CC2)cc1 [Example 72] |  | 10000 to 40000 nM | 1000 to 10000 nM |
| CCN1CCOc2cc3c(cc21)Oc1cc2c(cc1=N3)OCC[N+]=2CCCCCC(=O)NCc1ccc(N2CCN(c3nnc(Cc4ccccc4)c4ccccc34)CC2)nc1 [Example 74] |  | 100 to 1000 nM | < 100 nM |
| N#Cc1ccc(N2CCN(c3cnc(Cc4cccc(C#N)c4)c4ccccc34)CC2)nc1 [Example 80] |  | 10000 to 40000 nM | 1000 to 10000 nM |
| COC(=O)CC(SCC(=O)NCc1ccc(N2CCN(c3nnc(Cc4ccccc4)c4ccccc34)CC2)nc1)C(=O)OC (stereo not drawn) [Example 215] |  | 1000 to 10000 nM | 100 to 1000 nM |

Source: patent US8536168B2 (Novartis AG, priority 2007, dated 2013)
